# Where a name gives a salt, the structure may show the parent alone. Read-outs that look alike come from different tables or passages of the source.
# Assay: Ocular tissue concentrations (aqueous humor, vitreous humor, iris, retina, choroid, cornea) after topical ocular, subcutaneous and intravitreal administration
# Assay type: in vivo, New Zealand White rabbits
# Conditions: for concentration at 4 h / concentration at 0.5 h / concentration at 1 hr / concentration at 2 hr / concentration at 4 hr / concentration at 0.5 hr / concentration at 2 h / concentration at 1 h / concentration at 6 hr / concentration at 24 h / concentration at 48 h / concentration at 72 h: New Zealand White, rabbit; for concentration at 6 hr / concentration at 24 h / concentration at 48 h / concentration at 72 h: other: intravitreal, 2.5 mg per eye, Group 4 intravitreal 2.5 mg per eye
# Procedure: To measure the concentration of Compound 1 in plasma and ocular tissues following topical ocular, subcutaneous, and intravitreal administration, New Zealand White rabbits were administered Compound 1, and plasma and ocular samples were collected at pre-determined time points. Compound 1 formulations were prepared fresh on each day of dosing.
# Ocular tissue samples from both eyes of each animal were collected and weights were recorded. Plasma and ocular tissue sample concentrations of Compound 1 were determined by LC-MS/MS.
# New Zealand White rabbits weighing 2.5 to 3.5 kg were used on this study. Rabbits were housed one per cage. Animals were not fasted and only healthy animals with no ocular illness were used. Two rabbits per group were sacrificed at each of four ocular tissue sampling time points for a total of eight rabbits per group.
# Animals were anesthetized for ocular (topical) and intravitreal dosing following the 12IA7 IACUC protocol. Each rabbit received a bolus dose of test formulation either via topical ocular administration 3 times daily on Days 1 and 2 (at 0, 6, and 12 hours), and once on Day 3 (at 0 hours) into both eyes; via intravitreal administration into both eyes once on Day 1 (at 0 hours); or via subcutaneous administration 2 times daily on Days 1 and 2 (at 0 and 8 hours) and once daily on Day 3 (at 0 hours). Doses were given within an approximately 1 hour window each day where applicable.
# On Day 1, for intravitreal administration, or on Day 3, for topical ocular and subcutaneous administration, at the appropriate ocular tissue collection time points, animals were euthanized and both eyes were enucleated immediately. Following enucleation, each eye was rinsed with phosphate-buffered saline. Ocular tissue samples from both eyes of each animal were collected at predetermined time points and weights were recorded. All the samples were frozen immediately on dry ice, and stored at −60° C. to −80° C. pending bioanalysis.
# An LC-MS/MS method was developed for the determination of Compound 1 in rabbit aqueous tissues (plasma, aqueous and vitreous humor) and solid ocular tissue samples. A pre-study standard curve was analyzed to determine the specificity, range, and lower limit of quantitation of the method. Plasma and tissue homogenate study samples were extracted and analyzed. All the samples were treated identically to the standards.
# One eight-point standard curve was used in each analytical batch. To be accepted, each batch must have had at least five of eight standards with accuracy within ±20% of nominal, except at the lower limit of quantification (LLOQ), where ±25% was acceptable.
# Concentration versus time data is plotted in FIGS. 3-16. All data are expressed as ng/g of the free drug. Samples that were below the limit of quantitation (0.2 ng/mL) were not used in the calculation of averages.
# [1] = vitreous humor, read-out: vitreous humor Average Conc.
# [2] = vitreous humor, read-out: vitreous humor Conc., individual eyes (OD, OS)
smiles,measurement,setting,value
COC(=O)N[C@@H](Cc1ccccc1)C(=O)N[C@@H](Cc1ccc(NS(=O)(=O)O)cc1)c1csc(-c2cccs2)n1 [Compound 1 sodium salt],concentration at 4 h,"aqueous humor, topical, 1.2 mg/eye, Group 1 topical ocular 1.2 mg/eye, 4.0 hr, read-out: aqueous humor Average Conc.",8.24 ng/g
same,concentration at 0.5 h,"choroid, topical, 1.2 mg/eye, topical ocular 1.2 mg/eye (~0.7 mg/kg/dose), read-out: Choroid tissue Average",57.7 ng/g
same,concentration at 1 hr,"choroid, topical, 1.2 mg/eye, topical ocular 1.2 mg/eye (~0.7 mg/kg/dose), 1 hr, read-out: Choroid tissue Average",32.2 ng/g
same,concentration at 2 hr,"choroid, topical, 1.2 mg/eye, topical ocular 1.2 mg/eye (~0.7 mg/kg/dose), 2 hr, read-out: Choroid tissue Average",59.2 ng/g
same,concentration at 4 hr,"choroid, topical, 1.2 mg/eye, topical ocular 1.2 mg/eye (~0.7 mg/kg/dose), 4 hr, read-out: Choroid tissue Average",165 ng/g
same,concentration at 0.5 hr,"cornea, topical, 1.2 mg/eye, topical ocular 1.2 mg/eye (~0.7 mg/kg/dose), read-out: Cornea tissue Average",1020 ng/g
same,concentration at 0.5 hr,"cornea, topical, 1.2 mg/eye, topical ocular 1.2 mg/eye (~0.7 mg/kg/dose), read-out: Cornea tissue Conc., individual eyes (OD, OS)",427 ng/g
same,concentration at 1 hr,"cornea, topical, 1.2 mg/eye, topical ocular 1.2 mg/eye (~0.7 mg/kg/dose), 1 hr, read-out: Cornea tissue Average",548 ng/g
same,concentration at 2 hr,"cornea, topical, 1.2 mg/eye, topical ocular 1.2 mg/eye (~0.7 mg/kg/dose), 2 hr, read-out: Cornea tissue Average",1070 ng/g
same,concentration at 4 hr,"cornea, topical, 1.2 mg/eye, topical ocular 1.2 mg/eye (~0.7 mg/kg/dose), 4 hr, read-out: Cornea tissue Average",534 ng/g
same,concentration at 0.5 hr,"iris homogenate, topical, 1.2 mg/eye, topical ocular 1.2 mg/eye (~0.7 mg/kg/dose), read-out: Iris homogenate Conc., individual eyes (OD, OS)",2.55 ng/mL
same,concentration at 0.5 hr,"iris, topical, 1.2 mg/eye, topical ocular 1.2 mg/eye (~0.7 mg/kg/dose), read-out: Iris tissue Average",24.3 ng/g
same,concentration at 0.5 hr,"iris, topical, 1.2 mg/eye, topical ocular 1.2 mg/eye (~0.7 mg/kg/dose), read-out: Iris tissue Conc., individual eyes (OD, OS)",17.8 ng/g
same,concentration at 1 hr,"iris, topical, 1.2 mg/eye, topical ocular 1.2 mg/eye (~0.7 mg/kg/dose), 1 hr, read-out: Iris tissue Average",55.2 ng/g
same,concentration at 2 h,"iris, topical, 1.2 mg/eye, topical ocular 1.2 mg/eye (~0.7 mg/kg/dose), 2 hr, read-out: Iris tissue Average",51.9 ng/g
same,concentration at 4 h,"iris, topical, 1.2 mg/eye, topical ocular 1.2 mg/eye (~0.7 mg/kg/dose), 4 hr, read-out: Iris tissue Average",261 ng/g
same,concentration at 4 h,"iris, topical, 1.2 mg/eye, topical ocular 1.2 mg/eye (~0.7 mg/kg/dose), 4 hr, read-out: Iris tissue Conc., individual eyes (OD, OS)",30.7 ng/g
same,concentration at 0.5 h,"retina, topical, 1.2 mg/eye, topical ocular 1.2 mg/eye (~0.7 mg/kg/dose), read-out: Retina tissue Average",25.6 ng/g
same,concentration at 1 h,"retina, topical, 1.2 mg/eye, topical ocular 1.2 mg/eye (~0.7 mg/kg/dose), 1 hr, read-out: Retina tissue Average",59.2 ng/g
same,concentration at 2 h,"retina, topical, 1.2 mg/eye, topical ocular 1.2 mg/eye (~0.7 mg/kg/dose), 2 hr, read-out: Retina tissue Average",48.3 ng/g
same,concentration at 4 h,"retina, topical, 1.2 mg/eye, topical ocular 1.2 mg/eye (~0.7 mg/kg/dose), 4 hr, read-out: Retina tissue Average",405 ng/g
same,concentration at 6 hr,[1],988000 ng/g
same,concentration at 6 hr,[2],592000 ng/mL
same,concentration at 24 h,[1],350000 ng/g
same,concentration at 24 h,[2],438000 ng/mL
same,concentration at 48 h,[1],82000 ng/g
same,concentration at 48 h,[2],85200 ng/mL
same,concentration at 72 h,[1],13400 ng/g
same,concentration at 72 h,[2],14500 ng/mL
same,concentration at 0.5 hr,"vitreous humor, subcutaneous, 5 mg/kg, Group 2 subcutaneous 5 mg/kg, read-out: vitreous humor Average Conc.",0.83 ng/g
same,concentration at 0.5 hr,"vitreous humor, subcutaneous, 5 mg/kg, Group 2 subcutaneous 5 mg/kg, read-out: vitreous humor Conc., individual eyes (OD, OS)",0.77 ng/mL
same,concentration at 1 hr,"vitreous humor, subcutaneous, 5 mg/kg, Group 2 subcutaneous 5 mg/kg, 1.0 hr, read-out: vitreous humor Average Conc.",0.45 ng/g
same,concentration at 0.5 h,"vitreous humor, topical, 1.2 mg/eye, Group 1 topical ocular 1.2 mg/eye, read-out: vitreous humor Average Conc.",0.61 ng/g
same,concentration at 0.5 h,"vitreous humor, topical, 1.2 mg/eye, Group 1 topical ocular 1.2 mg/eye, read-out: vitreous humor Conc., individual eyes (OD, OS)",0.528 ng/mL
same,concentration at 1 h,"vitreous humor, topical, 1.2 mg/eye, Group 1 topical ocular 1.2 mg/eye, 1.0 hr, read-out: vitreous humor Average Conc.",2.09 ng/g
same,concentration at 2 hr,"vitreous humor, topical, 1.2 mg/eye, Group 1 topical ocular 1.2 mg/eye, 2.0 hr, read-out: vitreous humor Average Conc.",3.33 ng/g
same,concentration at 2 hr,"vitreous humor, topical, 1.2 mg/eye, Group 1 topical ocular 1.2 mg/eye, 2.0 hr, read-out: vitreous humor Conc., individual eyes (OD, OS)",1.14 ng/mL
same,concentration at 4 hr,"vitreous humor, topical, 1.2 mg/eye, Group 1 topical ocular 1.2 mg/eye, 4.0 hr, read-out: vitreous humor Average Conc.",4.01 ng/g
same,aqueous humor concentrations,"topical ocular administration, over four hours (FIG. 6)",below 50 ng/g

# Source: patent US11666558B2, “Methods of treating intraocular pressure with activators of Tie-2” (EyePoint Pharmaceuticals, Inc., priority 2015, dated 2023)
